Earlier results as cited in patent US20090239923A1 (priority 2008, published 2009).

System: human body
Settings: ingestion, 70 Kg human body; 90 mL = 70 g

Compound: CO [methanol]
- Lethal dose: 90 mL
